Assay results as given in patent US10934303B2, “Aryl ethene derivative and pharmaceutical composition containing same as active ingredient” (priority 2016, dated 2021).
Like-named read-outs stand apart in the source and are kept apart here.

How the values were obtained:
ERRγ = assay type: cell-based
Description: AD293 was cultured in a 24-well plate for 24 hours, using a DMEM High glucose culture medium (Hyclone, USA) to which 0.5% FBS was added at a concentration of 9×10^4/well. The culture medium was replaced with a DMEM High glucose culture medium to which 10% FBS was added, treatment was performed with a mixture of a TransIT-LT1 transfection reagent (Mirus, USA) and pCMX-Gal4-ERRγ, pFR-luciferase reporter plasmid, pCMV-β-gal, and culturing was performed for 24 hours. Thereafter, a luciferase activity assay and a β-gal assay were performed, respectively, with a lysate obtained after treatment with the arylethene derivative of the present invention for 24 hours. All results were derived from three or more independent repetitive experiments.

[1] = 1 μM, 30 minutes, 37° C., NADPH
Description: 2) Microsomal Stability Evaluation
(§2) Four liver microsomes (Human, Dog, Rat, Mouse 0.5 mg/ml) with a 0.1 M phosphate buffer solution (pH 7.4), and the arylethene derivative of the present invention were added to a concentration of 1 μM, culturing was performed at 37° C. for 5 minutes in advance, a NADPH regeneration system solution was added thereto, and culturing was performed at 37° C. for 30 minutes. Thereafter, in order to complete the reaction, an acetonitrile solution containing an internal standard material (chlorpropamide) was added thereto, centrifugation (14,000 rpm, 4° C.) was performed for 5 minutes, and a supernatant was injected into a LC-MS/MS system to analyze the substrate drug, thereby evaluating metabolism stability to the arylethene derivative of the present invention.

in vitro = in vitro ADME; set-up: Papp at 5 h: dose or concentration left out as unconfirmed; conditions: PBS pH 7.4, 25° C.; for Papp at 5 h: PAMPA, read-out: Permeability Pampa; for Permeability Pampa: 5 hours
Description: 3) Parallel Artificial Membrane Permeability Assay (PAMPA) Evaluation
PAMPA is a method which has been developed for testing cell membrane permeability of a material in a test tube, and has been performed using a lipid tri-layer PVDF membrane available from Corning Gentest (NY, US), the used reagents were all purchased from Sigma (MO, US). First, a test material is diluted in PBS (pH 7.4) to a final concentration of 10 mM, 300 mL of the solution is added to the bottom well of a 96-transwell equipped with a PVDF membrane, and 200 mL of PBS is added to the upper well. Then, a plate is reacted at 25° C. for 5 hours, 20 mL of the solution in each well is transferred to a new container, and 80 mL of acetonitrile containing an internal standard material (4 mM chloropropamide) is added thereto. A concentration of the material in the solution is analyzed using LC-MS/MS (ThermoFisher Scientific, MO, US), and the transmittance of the material is calculated according to the equation reported in the reference document.

[2] = 1 μM, 30 minutes, 37° C., NADPH; remark: listed apart in the source
[3] = 1 μM, 30 minutes, 37° C., NADPH; remark: listed apart in the source
Description: 2) Microsomal Stability Evaluation
as §2

[4] = 1 μM, 30 minutes, 37° C., NADPH; remark: listed apart in the source
Description: 2) Microsomal Stability Evaluation
as §2

[5] = molecular target: GST-bound ERR gamma ligand-binding domain (LBD) (Homo sapiens (Human), UniProt P62508); assay: ERRγ binding assay (inverse agonist assay), TR-FRET
Description: 1) ERRγ Binding Assay (Inverse Agonist Assay)
(§3) The arylethene derivative of the present invention was sequentially added to a 384 well plate from a concentration of 10 μM to a final concentration of two-fold dilution. […] After all reagents were added, a reaction was carried out with gentle shaking at 20° C. for 1 hour, and after the reaction, a binding activity was measured by a TR-FRET method.

CYP2C19 = CYP2C19 (Homo sapiens (Human), UniProt P33261); assay: Cytochrome P450 activity inhibition, CYP2C19; assay type: in vitro ADME; conditions: 10 μM, human liver microsomes, S-mephenytoin substrate
Description: (§1) 1) Cytochrome P450 (CYP450) Activity Inhibition Evaluation

GST-bound ERR alpha LBD = GST-bound ERR alpha LBD (Homo sapiens (Human), UniProt P11474); conditions: TR-FRET, PGC1a coactivator; read-out: Binding Assay, IC50 ERRα
Description: as §3

CYP2C9 = CYP2C9 (Homo sapiens (Human), UniProt P11712); assay: Cytochrome P450 activity inhibition, CYP2C9; assay type: in vitro ADME; conditions: 10 μM, human liver microsomes, Diclofenac substrate
Description: as §1

in vivo = assay type: in vivo; conditions: rat; for Cmax: read-out: Cmax
Description: An oral administration group fasts the day before.
Blood of each animal is collected at 0 hour.
Into a tail vein of an intravenous administration group (IV), a drug is injected at a dose of 1 mg/kg (syringe).
To an oral administration group (PO), a drug is orally administered at a dose of 10 mg/kg (oral zondec)
After administration, blood of the intravenous administration group was collected through a jugular vein 8 times at 0.08, 0.25, 0.5, 1, 2, 4, 6, and 8 hours. One collected blood amount is 400 to 500 ul.
After administration, blood of the oral administration group was collected through a jugular vein 6 times at 0.25, 0.5, 1, 4, 6 and 8 hours. One collected blood amount is 400 to 500 ul.
Supernatant plasma is collected by a centrifuge.
The supernatant plasma was injected into a LC-MS/MS system and the drug is analyzed.

CYP3A4 = CYP3A4 (Homo sapiens (Human), UniProt P08684); assay: Cytochrome P450 activity inhibition, CYP3A4; assay type: in vitro ADME; conditions: 10 μM, human liver microsomes, Midazolam substrate
Description: as §1

[6] = molecular target: GST-bound ER alpha ligand-binding domain (LBD) (Homo sapiens (Human), UniProt P03372); assay: biochemical; conditions: TR-FRET, beta-estradiol 4 nM as agonist; read-out: Binding Assay, IC50 ERα
Description: as §3

CYP2D6 = CYP2D6 (Homo sapiens (Human), UniProt P10635); assay: Cytochrome P450 activity inhibition, CYP2D6; assay type: in vitro ADME; conditions: 10 μM, human liver microsomes, Dextromethorphan substrate
Description: as §1

CYP1A2 = CYP1A2 (Homo sapiens (Human), UniProt P05177); assay: Cytochrome P450 activity inhibition, CYP1A2; assay type: in vitro ADME; conditions: 10 μM, human liver microsomes, Phenacetin substrate
Description: as §1

hERG channel = hERG channel (Homo sapiens (Human), UniProt Q12809); conditions: read-out: hERG IC50; fluorescence polarization assay
[7] = activity relative to reference compound GSK5182, 10 μM
[8] = TR-FRET, PGC1a coactivator, read-out: Binding Assay, IC50 ERRγ

CYP2D6, sequence (P10635 whole entry): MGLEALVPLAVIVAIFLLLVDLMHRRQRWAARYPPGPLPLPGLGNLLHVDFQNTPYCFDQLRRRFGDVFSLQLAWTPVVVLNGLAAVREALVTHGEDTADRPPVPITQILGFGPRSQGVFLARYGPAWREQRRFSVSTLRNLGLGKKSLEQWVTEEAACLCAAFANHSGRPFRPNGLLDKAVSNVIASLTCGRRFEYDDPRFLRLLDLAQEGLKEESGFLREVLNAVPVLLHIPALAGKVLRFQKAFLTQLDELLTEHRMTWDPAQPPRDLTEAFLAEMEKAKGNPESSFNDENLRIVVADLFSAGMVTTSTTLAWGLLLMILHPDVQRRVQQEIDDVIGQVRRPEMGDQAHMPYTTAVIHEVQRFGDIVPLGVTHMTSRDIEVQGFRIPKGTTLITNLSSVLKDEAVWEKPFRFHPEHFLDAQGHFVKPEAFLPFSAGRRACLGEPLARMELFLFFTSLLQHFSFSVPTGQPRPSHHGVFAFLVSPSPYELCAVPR
CYP2C9, sequence (P11712 whole entry): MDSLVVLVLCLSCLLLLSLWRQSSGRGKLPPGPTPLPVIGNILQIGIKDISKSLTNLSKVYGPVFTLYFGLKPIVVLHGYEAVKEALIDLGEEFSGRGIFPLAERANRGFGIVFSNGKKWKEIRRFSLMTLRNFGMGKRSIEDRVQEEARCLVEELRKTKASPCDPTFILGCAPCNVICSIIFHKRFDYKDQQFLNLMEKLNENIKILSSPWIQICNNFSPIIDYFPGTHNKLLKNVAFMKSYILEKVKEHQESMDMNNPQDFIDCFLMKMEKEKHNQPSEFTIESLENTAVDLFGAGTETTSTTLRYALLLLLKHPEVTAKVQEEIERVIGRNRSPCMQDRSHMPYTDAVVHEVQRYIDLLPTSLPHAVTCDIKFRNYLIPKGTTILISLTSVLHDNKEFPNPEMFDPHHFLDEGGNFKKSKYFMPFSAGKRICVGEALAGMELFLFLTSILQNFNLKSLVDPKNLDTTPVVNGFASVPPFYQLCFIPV
GST-bound ER alpha ligand-binding domain (LBD), sequence (P03372 whole entry, looked up, the tested form may be a part): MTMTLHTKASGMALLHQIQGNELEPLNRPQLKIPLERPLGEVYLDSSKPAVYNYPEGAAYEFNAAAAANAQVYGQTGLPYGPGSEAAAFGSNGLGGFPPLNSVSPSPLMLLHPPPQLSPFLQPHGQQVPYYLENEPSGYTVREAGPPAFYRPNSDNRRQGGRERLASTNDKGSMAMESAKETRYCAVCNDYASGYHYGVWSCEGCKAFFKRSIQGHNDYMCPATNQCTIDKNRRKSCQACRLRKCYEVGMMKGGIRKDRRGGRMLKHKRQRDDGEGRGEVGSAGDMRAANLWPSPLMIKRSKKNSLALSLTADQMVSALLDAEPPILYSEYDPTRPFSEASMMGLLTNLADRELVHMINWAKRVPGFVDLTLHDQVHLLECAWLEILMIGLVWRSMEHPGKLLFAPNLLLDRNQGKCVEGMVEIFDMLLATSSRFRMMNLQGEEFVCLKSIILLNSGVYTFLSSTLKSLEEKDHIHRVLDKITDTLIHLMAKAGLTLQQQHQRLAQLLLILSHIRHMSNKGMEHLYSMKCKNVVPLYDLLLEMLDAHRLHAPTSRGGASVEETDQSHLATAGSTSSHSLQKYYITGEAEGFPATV
GST-bound ERR gamma ligand-binding domain (LBD), sequence (P62508 233-457): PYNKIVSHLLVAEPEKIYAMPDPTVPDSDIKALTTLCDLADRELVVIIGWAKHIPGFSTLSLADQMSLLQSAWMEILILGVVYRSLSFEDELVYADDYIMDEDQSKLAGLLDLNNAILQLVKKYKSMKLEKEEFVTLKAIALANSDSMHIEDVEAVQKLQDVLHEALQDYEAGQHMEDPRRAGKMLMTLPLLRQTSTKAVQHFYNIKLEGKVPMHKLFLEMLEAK
GST-bound ERR alpha LBD, sequence (P11474 193-421): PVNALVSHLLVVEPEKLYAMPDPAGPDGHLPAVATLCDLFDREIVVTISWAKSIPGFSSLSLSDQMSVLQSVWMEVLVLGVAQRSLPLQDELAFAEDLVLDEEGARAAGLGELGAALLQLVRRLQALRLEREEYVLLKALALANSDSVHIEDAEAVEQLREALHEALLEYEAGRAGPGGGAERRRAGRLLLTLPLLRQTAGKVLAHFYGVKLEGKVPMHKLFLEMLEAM
CYP3A4, sequence (P08684 whole entry): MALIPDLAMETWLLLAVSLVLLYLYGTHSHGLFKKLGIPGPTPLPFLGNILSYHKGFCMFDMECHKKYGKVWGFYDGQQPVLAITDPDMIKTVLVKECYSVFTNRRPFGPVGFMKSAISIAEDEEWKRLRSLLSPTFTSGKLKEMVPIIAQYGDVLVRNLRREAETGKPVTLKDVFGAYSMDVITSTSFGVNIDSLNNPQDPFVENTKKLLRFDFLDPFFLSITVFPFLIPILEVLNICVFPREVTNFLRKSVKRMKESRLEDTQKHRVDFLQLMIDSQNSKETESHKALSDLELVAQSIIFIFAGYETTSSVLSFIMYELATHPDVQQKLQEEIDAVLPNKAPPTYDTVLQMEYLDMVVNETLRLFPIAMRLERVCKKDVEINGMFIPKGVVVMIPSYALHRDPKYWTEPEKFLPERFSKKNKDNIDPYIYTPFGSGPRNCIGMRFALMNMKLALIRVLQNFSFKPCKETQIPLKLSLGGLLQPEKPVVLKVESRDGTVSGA
CYP2C19, sequence (P33261 whole entry): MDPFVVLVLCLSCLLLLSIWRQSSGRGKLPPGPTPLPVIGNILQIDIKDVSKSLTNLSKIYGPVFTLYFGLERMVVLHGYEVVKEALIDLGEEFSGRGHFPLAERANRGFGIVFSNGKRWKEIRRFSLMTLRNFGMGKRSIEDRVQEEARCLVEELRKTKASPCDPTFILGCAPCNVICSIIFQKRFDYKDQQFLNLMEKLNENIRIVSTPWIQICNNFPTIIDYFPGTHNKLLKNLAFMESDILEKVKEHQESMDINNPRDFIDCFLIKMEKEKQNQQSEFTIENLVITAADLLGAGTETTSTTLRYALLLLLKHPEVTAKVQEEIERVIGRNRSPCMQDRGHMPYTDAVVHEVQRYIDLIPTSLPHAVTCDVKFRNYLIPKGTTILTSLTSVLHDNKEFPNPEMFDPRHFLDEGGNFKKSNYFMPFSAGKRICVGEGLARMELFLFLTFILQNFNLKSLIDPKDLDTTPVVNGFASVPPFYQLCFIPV
CYP1A2, sequence (P05177 whole entry): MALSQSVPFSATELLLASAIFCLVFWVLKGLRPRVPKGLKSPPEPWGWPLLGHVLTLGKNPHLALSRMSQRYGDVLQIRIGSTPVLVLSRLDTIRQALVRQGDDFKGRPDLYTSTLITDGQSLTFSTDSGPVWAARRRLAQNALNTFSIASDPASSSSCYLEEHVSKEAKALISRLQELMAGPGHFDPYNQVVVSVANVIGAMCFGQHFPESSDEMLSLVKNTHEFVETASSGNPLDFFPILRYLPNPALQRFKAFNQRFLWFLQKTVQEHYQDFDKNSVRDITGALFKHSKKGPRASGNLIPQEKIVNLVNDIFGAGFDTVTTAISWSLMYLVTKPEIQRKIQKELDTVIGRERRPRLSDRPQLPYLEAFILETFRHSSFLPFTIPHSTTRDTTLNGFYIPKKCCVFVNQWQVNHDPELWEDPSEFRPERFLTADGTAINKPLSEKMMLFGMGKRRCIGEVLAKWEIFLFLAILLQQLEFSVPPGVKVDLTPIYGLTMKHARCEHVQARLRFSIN

Row | Compound | MS(Microsomal Stability) (%) mouse [1] | MS(Microsomal Stability) (%) rat [2] | MS(Microsomal Stability) (%) human [3] | MS(Microsomal Stability) (%) dog [4] | Functional Assay at 10 μM (% of control), Cpds (ERRγ; 10 μM, 24 hours, AD293) | Functional Assay, Cpds/Ref 5182 (ERRγ; [7]) | CYP inhibition (% of control) 2C19 (CYP2C19) | IC50 (GST-bound ERR alpha LBD) | CYP inhibition (% of control) 2C9 (CYP2C9) | Permeability Pampa (in vitro) | CYP inhibition (% of control) 3A4 (CYP3A4) | IC50 [6] | CYP inhibition (% of control) 2D6 (CYP2D6) | CYP inhibition (% of control) 1A2 (CYP1A2) | IC50 [5, 8] | other results
1 | CC(C)N1CCN(c2ccc(/C(=C(/CCCO)c3ccccc3)c3ccc(NS(C)(=O)=O)cc3)cc2)CC1 [Compound 27a, (E)-N-(4-(5-hydroxy-1-(4-(4-isopropylpiperazin-1-yl)phenyl)-2-phenylpent-1-en-1-yl)phenyl)methanesulfonamide] | 32.7% | 65.0% | 66.2% | 50.3% | – | – | – | – | – | – | – | – | – | – | – | Functional Assay at 10 μM (% of control), Cpds (ERRγ): 2.1 % of control; Functional Assay, Cpds/Ref 5182 (ERRγ): 0.77; Papp at 5 h (in vitro): 2.22 ×10⁻⁶ cm/s; IC50 [5]: 26 nM
2 | CC(C)N1CCN(c2ccc(/C(=C(/CCCO)c3ccccc3)c3ccc(Br)cc3)cc2)CC1 [Compound 18e] | – | – | – | – | 2.6 % of control | 0.89 | 84.6 % of control | > 10000 nM | 91.3 % of control | 1.11 10^−6 cm/s | 84 % of control | > 10000 nM | >100 % of control | >100 % of control | – | AUCINF (in vivo; IV, 1 mg/kg): 0.06 μMh; AUCall (in vivo; IV, 1 mg/kg): 0.06 μMh; Vss (in vivo; IV, 1 mg/kg): 39.1 L/kg; t1/2 (in vivo; IV, 1 mg/kg): 0.8 h; AUCINF (in vivo; PO, 10 mg/kg): 0.09 μMh; AUCall (in vivo; PO, 10 mg/kg): 0.07 μMh; BA (in vivo; PO, 10 mg/kg): 11.5%; Tmax (in vivo; PO, 10 mg/kg): 2.8 h; Cmax (in vivo; PO, 10 mg/kg): 10 nM
3 | CCN1CCN(c2ccc(/C(=C(/CCCO)c3ccccc3)c3ccc(C)cc3)cc2)CC1 [Compound 18j] | 54.9% | 62.8% | 67.9% | 58.0% | 3.28 % of control | 1.21 | 74 % of control | > 10000 nM | 87 % of control | 1.61 10^−6 cm/s | 77.6 % of control | > 10000 nM | 86.6 % of control | >100 % of control | 25 nM | AUCINF (in vivo; IV, 1 mg/kg): 0.60 μMh; AUCall (in vivo; IV, 1 mg/kg): 0.55 μMh; Cl(observed)/F (in vivo; IV, 1 mg/kg): 59 mL/min/kg; Vss (in vivo; IV, 1 mg/kg): 9.8 L/kg; t1/2 (in vivo; IV, 1 mg/kg): 3.2 h; AUCINF (in vivo; PO, 10 mg/kg): 1.61 μMh; AUCall (in vivo; PO, 10 mg/kg): 1.07 μMh; BA (in vivo; PO, 10 mg/kg): 19.6%; Tmax (in vivo; PO, 10 mg/kg): 3 h; Cmax (in vivo; PO, 10 mg/kg): 210 nM
4 | OCCC/C(=C(\c1ccc(O)cc1)c1ccc(N2CCN(C3CCC3)CC2)cc1)c1ccccc1 [Compound 22q] | 17.6% | 67.6% | 63.7% | 43.8% | – | – | 92.8 % of control | > 10000 nM | 77.7 % of control | 0.77 10^−6 cm/s | 81 % of control | 1660 nM | 77.6 % of control | 99.9 % of control | 53 nM | –
5 | Cc1ccc(/C(=C(\CCCO)c2ccccc2)c2ccc(C3CNC3)cc2)cc1 [Compound 20d] | 11.3% | 54% | 83% | – | – | – | – | – | – | 0.23 10^−6 cm/s | – | – | – | – | – | IC50 (hERG channel): 15000 nM
6 | CN1CCC[C@@H]1CCOc1ccc(/C(=C(/CCCO)c2ccccc2)c2ccc(O)cc2)cc1 [Compound 6k] | – | – | – | – | 2.5 % of control | 0.79 | – | – | – | – | – | – | – | – | 26 nM | Papp at 5 h (in vitro): 0.12 ×10⁻⁶ cm/s
7 | OCCC/C(=C(\c1ccc(O)cc1)c1ccc(OCCN2CCCC2)cc1)c1ccccc1 [Compound 6e] | – | – | – | – | 5.61 % of control | – | – | > 10000 nM | – | – | – | 408 nM | – | – | 67 nM | Functional Assay, Cpds/Ref 5182 (ERRγ): 1.82
8 | OCCC/C(=C(\c1ccc(O)cc1)c1ccc(N2CCN(C3CCCCC3)CC2)cc1)c1ccccc1 [Compound 22p] | 40.4% | 75.3% | 72.3% | 77.7% | – | – | 61.5 % of control | 9700 nM | 81.8 % of control | 0.2 10^−6 cm/s | 90.6 % of control | 2120 nM | 79.6 % of control | 88.1 % of control | 99 nM | –
9 | CN1CCC[C@H]1COc1ccc(/C(=C(/CCCO)c2ccccc2)c2ccc(Br)cc2)cc1 [Compound 13b] | – | 66.2% | 61.2% | – | – | – | – | – | – | – | – | – | – | – | 64 nM | Functional Assay at 10 μM (% of control), Cpds (ERRγ): 1.5 % of control; Functional Assay, Cpds/Ref 5182 (ERRγ): 0.48; Papp at 5 h (in vitro): 0.93 ×10⁻⁶ cm/s
10 | CC(C)N1CCN(c2ccc(/C(=C(/CCCO)c3ccccc3)c3ccc(Br)cc3)cc2)CC1 [Compound 18h] | 48.5% | 74.2% | >100% | 64.4% | 4.47 % of control | 1.09 | 86.3 % of control | > 10000 nM | 96.9 % of control | 0.37 10^−6 cm/s | 64.5 % of control | > 10000 nM | 71.5 % of control | 93.5 % of control | 32 nM | –
11 | CN1CCC[C@H]1CCOc1ccc(/C(=C(/CCCO)c2ccccc2)c2ccc(O)cc2)cc1 [Compound 6j] | – | – | – | – | 2.44 % of control | 0.77 | – | – | – | – | – | – | – | – | 34 nM | –
12 | CC(C)N1CCC(c2ccc(/C(=C(/CCCO)c3ccccc3)c3ccc(O)cc3)cc2)CC1 [Compound 22k] | 23.4% | 69.0% | 59.7% | 59.6% | 0.77 % of control | 0.83 | >100 % of control | > 10000 nM | 97 % of control | – | 74.7 % of control | 1380 nM | 73.7 % of control | >100 % of control | – | –
